Four compounds from patent US6828327B2, “Macroheterocylic compounds useful as kinase inhibitors” (Ortho-McNeil Pharmaceutical, Inc., priority 2000, dated 2004) can be followed below.

Common to all, as to format: biochemical
One assay concerns the target T1, PKC-βII (Homo sapiens, UniProt P05771).
T1 construct: purchased PanVera, Madison Wis; host or cells: baculovirus expression vector
As to the kind of experiment: Protein Kinase C Scintillation Proximity Assay (SPA), PKC-βII. The conditions noted are these: inhibition value, recombinant human isozyme, 1 μM ATP. As to the method:
The binding activity of a compound for Protein Kinase C (PKC) was assessed using a homogeneous Scintillation Proximity Assay according to the procedure below.
The different human PKC isozymes (were obtained from PanVera, Madison Wis. and had been prepared as recombinant enzymes produced from a baculovirus expression vector) were added to a reaction mixture containing a test compound, 20 mM HEPES (pH 7.4), 100 μM CaCl2, 10 mM MgCl2, 100 μg/mL phosphatidylserine, 20 μg/mL diacylglycerol, 1 μM ATP, 0.8 μCi (^33P)ATP, and 5 μg/mL biotinylated substrate peptide (Jing Zhao et al., J. Bio. Chem., 1998, 273, 23072). The reaction was incubated for 15 min at 30° C. Reactions were terminated by the addition of streptavidin-coated SPA beads (Amersham) in a solution containing 1 mM EGTA, 10 mM EDTA and 100 μM ATP. Beads were allowed to settle overnight and the plates read in a Wallac MICROBETA scintillation counter (PerkinElmer Life sciences, Wellesley, Mass.).
Values for inhibition of various PKC isozymes and GSK 3-β by certain compounds of the invention tested in the PKC SPA and GSK 3-β assays are shown in Table 1.
Background: In a scintillation proximity assay essentially only radioactivity close to the scintillant gives light.

The target of the next assay is T2, CDK1 (Homo sapiens, UniProt P06493).
T2 construct: purchased New England Biolabs, Beverly, Mass; 6020; host or cells: insect cells
T2 sequence (P06493 whole entry): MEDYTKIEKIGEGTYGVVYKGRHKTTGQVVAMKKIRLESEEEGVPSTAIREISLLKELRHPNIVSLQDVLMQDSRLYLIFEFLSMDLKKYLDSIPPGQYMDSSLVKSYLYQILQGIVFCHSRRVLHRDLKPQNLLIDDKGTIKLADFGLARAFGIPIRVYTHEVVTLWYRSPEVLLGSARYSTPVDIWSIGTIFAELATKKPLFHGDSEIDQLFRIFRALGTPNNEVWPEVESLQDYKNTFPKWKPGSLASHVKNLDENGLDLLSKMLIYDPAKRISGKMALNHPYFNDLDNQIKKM
T2 sequence (P14635 whole entry partner): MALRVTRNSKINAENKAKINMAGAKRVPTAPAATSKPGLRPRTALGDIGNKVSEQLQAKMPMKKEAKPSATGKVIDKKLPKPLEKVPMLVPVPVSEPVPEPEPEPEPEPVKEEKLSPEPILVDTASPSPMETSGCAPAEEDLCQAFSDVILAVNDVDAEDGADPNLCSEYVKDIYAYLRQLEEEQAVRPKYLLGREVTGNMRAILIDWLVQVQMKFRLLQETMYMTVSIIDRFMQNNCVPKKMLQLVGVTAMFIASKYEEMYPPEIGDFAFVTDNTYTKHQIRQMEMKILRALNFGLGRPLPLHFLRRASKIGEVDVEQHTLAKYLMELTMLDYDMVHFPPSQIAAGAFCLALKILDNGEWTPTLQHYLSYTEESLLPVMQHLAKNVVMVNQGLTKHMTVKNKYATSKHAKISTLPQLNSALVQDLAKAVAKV
Description: Biotinylated Peptide Substrate Assay, CDK1. To be noted: read-out: CDK1 Kinase Assay (IC50 uM). As to the method: (§1) Assays to test inhibition of a compound for other kinases were preformed using methods that measure the amount of phosphorylation of a biotinylated peptide substrate. Biotinylated peptide substrates were selected from the literature as appropriate for the enzyme being evaluated.
(§2) A kinase reaction mix was prepared in 50 mM Tris-HCl pH=8, 10 mM MgCl2, 0.1 mM Na3VO4, 1 mM DTT, 10 μM ATP, 0.25-1 μM biotinylated peptide substrate, 0.2-0.8 μCuries per well ^33P-γ-ATP (2000-3000 Ci/mmol). Assay conditions vary slightly for each protein kinase, for example, insulin receptor kinase requires 10 mM MnCl2 for activity and Calmodulin-dependent protein kinase requires calmodulin and 10 mM CaCl2. The reaction mixture was dispensed into the wells of a streptavidin coated Flashplate and 1 μL drug stock in 100% DMSO was added to a 100 μL reaction volume resulting in a final concentration of 1% DMSO in the reaction. Enzyme was diluted in 50 mM Tris-HCl pH=8.0, 0.1% BSA and added to each well. The reaction was incubated for one hour at 30° C. in the presence of compound. After one hour the reaction mix was aspirated from the plate and the plate was washed with PBS containing 100 mM EDTA. The plate was read on a scintillation counter to determine ^33P-γ-ATP incorporated into the immobilized peptide. Test compounds were assayed in duplicate at 8 concentrations (100 uM, 10 uM, 1 uM, 100 nM, 10 nM, 1 nM, 100 pM, 10 pM). A maximum and minimum signal for the assay was determined on each plate.
(§3) The IC50 was calculated from the dose response curve of the percent inhibition of the maximum signal in the assay according to the formula:
(§4) % Inhibition=((MS−BS)/(TCS−BS))×100%
(§5) where MS=Maximum Signal, BS=Background Signal, TCS=Test Compound Signal. The percent inhibition was graphed against the log concentration of the test compound. Known inhibitor compounds as appropriate references for the kinase being assayed were also included on each plate.
(§6) VEGF-R (vascular endothelial growth factor receptor-2) is a fusion protein containing a polyhistidine tag at the N-terminus followed by amino acids 786-1343 of the rat VEGF-R2 kinase domain (GenBank Accession #U93306). Protein Kinase A is the catalytic subunit of cAMP dependent protein kinase-A purified from bovine heart (Upstate Biotech, Lake Placid, N.Y., Cat#14-114). CDK1 (cyclin dependent kinase 1) is isolated from insect cells expressing both the human CDK1 catalytic subunit and its positive regulatory subunit cyclin B (New England Biolabs, Beverly, Mass., Cat. #6020). Casein Kinase-1 is a protein truncation at amino acid 318 of the C-terminal portion of the rat CK1 delta isoform produced in E.coli (New England Biolabs, Beverly, Mass., Cat. #6030). […]

Another assay deals with T3, Casein Kinase 1 (Rattus norvegicus, UniProt Q06486).
T3 construct: a protein truncation at amino acid 318 of the C-terminal portion of the rat CK1 delta isoform; purchased New England Biolabs, Beverly, Mass; 6030; host or cells: E. coli
T3 sequence (Q06486 1-317 limits assumed): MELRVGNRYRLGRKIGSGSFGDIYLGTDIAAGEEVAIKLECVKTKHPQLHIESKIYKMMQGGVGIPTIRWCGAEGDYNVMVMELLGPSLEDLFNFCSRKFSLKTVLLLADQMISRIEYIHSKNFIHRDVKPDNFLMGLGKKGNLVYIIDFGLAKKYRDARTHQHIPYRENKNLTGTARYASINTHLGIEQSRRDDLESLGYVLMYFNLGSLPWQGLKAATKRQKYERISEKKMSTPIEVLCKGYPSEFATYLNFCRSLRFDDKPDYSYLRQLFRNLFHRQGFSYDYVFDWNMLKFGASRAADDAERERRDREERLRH
As to the kind of experiment: Biotinylated Peptide Substrate Assay, Casein Kinase 1. As to the method:
as §1, §2, §3, §4, §5, §6

Another assay deals with T4, EGF-R (Homo sapiens, UniProt P00533).
T4 construct: is purified from human A431 cell membranes; purchased Sigma, St. Louis, Mo; E3641; host or cells: human A431 cell membranes (endogenous receptor)
T4 sequence (P00533 25-1210): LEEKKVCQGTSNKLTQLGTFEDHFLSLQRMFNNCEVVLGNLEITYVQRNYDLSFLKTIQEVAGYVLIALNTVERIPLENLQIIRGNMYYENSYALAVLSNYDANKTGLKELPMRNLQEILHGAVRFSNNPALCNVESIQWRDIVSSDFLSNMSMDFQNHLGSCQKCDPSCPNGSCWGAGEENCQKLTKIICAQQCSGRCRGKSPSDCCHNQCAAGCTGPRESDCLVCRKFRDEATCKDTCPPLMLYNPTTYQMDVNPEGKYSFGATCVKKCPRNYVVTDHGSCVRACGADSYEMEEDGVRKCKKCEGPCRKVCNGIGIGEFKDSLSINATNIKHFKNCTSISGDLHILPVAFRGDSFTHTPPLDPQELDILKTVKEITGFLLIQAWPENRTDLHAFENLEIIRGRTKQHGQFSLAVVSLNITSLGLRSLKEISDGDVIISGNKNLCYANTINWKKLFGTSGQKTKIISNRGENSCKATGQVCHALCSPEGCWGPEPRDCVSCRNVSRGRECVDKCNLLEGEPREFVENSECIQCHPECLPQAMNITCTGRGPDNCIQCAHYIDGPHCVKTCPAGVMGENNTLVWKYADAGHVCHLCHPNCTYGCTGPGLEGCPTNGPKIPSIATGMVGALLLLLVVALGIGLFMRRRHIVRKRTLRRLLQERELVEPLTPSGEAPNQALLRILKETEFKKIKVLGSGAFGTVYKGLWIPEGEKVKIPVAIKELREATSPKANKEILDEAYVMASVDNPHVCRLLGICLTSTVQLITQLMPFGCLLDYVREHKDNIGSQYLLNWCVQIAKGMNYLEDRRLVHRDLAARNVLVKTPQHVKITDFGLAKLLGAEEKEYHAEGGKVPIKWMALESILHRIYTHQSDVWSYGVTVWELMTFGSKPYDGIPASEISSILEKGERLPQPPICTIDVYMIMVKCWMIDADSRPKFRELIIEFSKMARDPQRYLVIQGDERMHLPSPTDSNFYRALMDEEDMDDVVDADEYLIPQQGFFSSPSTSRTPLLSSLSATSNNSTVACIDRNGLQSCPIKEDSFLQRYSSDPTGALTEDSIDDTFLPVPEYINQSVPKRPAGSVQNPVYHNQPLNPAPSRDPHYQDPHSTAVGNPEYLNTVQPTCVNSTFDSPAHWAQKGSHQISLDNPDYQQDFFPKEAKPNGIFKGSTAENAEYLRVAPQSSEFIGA
As to the kind of experiment: Biotinylated Peptide Substrate Assay, EGF-R. The conditions noted are these: read-out: EGF-R Kinase Assay (IC50 uM). As to the method: as §1, §2, §3, §4, §5, §6

The next assay deals with T5, Insulin-R kinase (Homo sapiens, UniProt P06213).
T5 construct: consists of residues 941-1313 of the cytoplasmic domain of the beta-subunit of the human insulin receptor; purchased BIOMOL, Plymouth Meeting, Pa; SE-195
T5 sequence (P06213 980-1352): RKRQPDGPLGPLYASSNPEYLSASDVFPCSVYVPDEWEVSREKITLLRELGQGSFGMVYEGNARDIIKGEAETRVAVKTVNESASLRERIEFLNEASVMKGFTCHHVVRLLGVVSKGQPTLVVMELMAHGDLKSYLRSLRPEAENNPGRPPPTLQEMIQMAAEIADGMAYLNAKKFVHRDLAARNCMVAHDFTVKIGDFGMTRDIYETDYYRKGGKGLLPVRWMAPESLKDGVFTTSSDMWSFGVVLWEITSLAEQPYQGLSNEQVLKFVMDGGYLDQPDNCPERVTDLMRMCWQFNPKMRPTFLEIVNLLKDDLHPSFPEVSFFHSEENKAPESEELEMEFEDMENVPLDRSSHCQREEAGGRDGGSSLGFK
Description: Biotinylated Peptide Substrate Assay, Insulin-R kinase. As to the method: as §1, §2, §3, §4, §5, §6

Molecules are shown by their SMILES.

T1 sequence (P05771 1-673 isoform P05771-2): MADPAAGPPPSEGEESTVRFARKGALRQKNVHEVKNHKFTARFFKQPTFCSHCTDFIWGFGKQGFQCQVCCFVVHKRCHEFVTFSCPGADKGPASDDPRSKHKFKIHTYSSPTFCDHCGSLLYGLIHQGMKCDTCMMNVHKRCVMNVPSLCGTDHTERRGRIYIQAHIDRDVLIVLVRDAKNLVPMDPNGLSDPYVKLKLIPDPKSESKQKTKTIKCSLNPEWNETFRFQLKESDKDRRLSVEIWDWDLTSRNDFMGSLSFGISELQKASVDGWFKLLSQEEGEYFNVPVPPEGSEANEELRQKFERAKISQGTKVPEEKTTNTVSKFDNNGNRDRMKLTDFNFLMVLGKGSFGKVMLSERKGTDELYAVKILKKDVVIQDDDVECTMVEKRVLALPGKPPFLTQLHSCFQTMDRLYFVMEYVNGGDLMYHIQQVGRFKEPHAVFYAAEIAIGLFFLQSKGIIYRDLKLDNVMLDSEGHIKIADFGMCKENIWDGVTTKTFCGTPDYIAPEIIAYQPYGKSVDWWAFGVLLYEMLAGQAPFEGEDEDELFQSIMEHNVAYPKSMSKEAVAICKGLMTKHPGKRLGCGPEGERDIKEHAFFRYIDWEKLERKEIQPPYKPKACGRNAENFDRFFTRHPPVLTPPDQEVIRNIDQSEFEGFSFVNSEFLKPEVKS

On to `O=C1NC(=O)C2=C1c1cn(c3ncccc13)CCOCCOCCOCCn1cc2c2cccnc21` [Cpd 1], for which the IC50 on PKC-βII was 2.41 µM; at CDK1 it was > 10 µM; against Casein Kinase 1, > 10 µM; at EGF-R, > 10 µM; on Insulin-R kinase it was > 10 µM.
On to `O=C1NC(=O)C2=C1c1cn(c3ncccc13)CCOCCOCCOCCOCCn1cc2c2cccnc21` [Cpd 2], for which the IC50 was > 100 µM on PKC-βII; > 10 µM on CDK1; > 10 µM on Casein Kinase 1; > 10 µM on EGF-R; > 10 µM at Insulin-R kinase.
As to `O=C1NC(=O)C2=C1c1cn(c3ccccc13)CCOCCOCCn1cc2c2cccnc21` [Cpd 10], the IC50 at PKC-βII was 0.519 µM; on CDK1, 0.422 µM; on Casein Kinase 1 it was > 10 µM; on EGF-R it was > 10 µM; against Insulin-R kinase it was > 10 µM.
Consider `O=C1NC(=O)C2=C1c1cn(c3ccccc13)CCOCCOCCOCCn1cc2c2cccnc21` [Cpd 11], for which the IC50 on PKC-βII was 0.072 µM; on CDK1, 0.457 µM; against Casein Kinase 1, > 10 µM; on EGF-R it was > 10 µM; on Insulin-R kinase it was > 10 µM.

What is called IC50 is the midpoint of a concentration-inhibition curve.
